Laboratory results taken from publication PMC6118295 (CPT: Pharmacometrics & Systems Pharmacology, 2018).

Biological target: T1, Recombinant human CES1 (CES1b/CES1A1) (Homo sapiens, UniProt P23141)
T1 sequence (P23141 18-567): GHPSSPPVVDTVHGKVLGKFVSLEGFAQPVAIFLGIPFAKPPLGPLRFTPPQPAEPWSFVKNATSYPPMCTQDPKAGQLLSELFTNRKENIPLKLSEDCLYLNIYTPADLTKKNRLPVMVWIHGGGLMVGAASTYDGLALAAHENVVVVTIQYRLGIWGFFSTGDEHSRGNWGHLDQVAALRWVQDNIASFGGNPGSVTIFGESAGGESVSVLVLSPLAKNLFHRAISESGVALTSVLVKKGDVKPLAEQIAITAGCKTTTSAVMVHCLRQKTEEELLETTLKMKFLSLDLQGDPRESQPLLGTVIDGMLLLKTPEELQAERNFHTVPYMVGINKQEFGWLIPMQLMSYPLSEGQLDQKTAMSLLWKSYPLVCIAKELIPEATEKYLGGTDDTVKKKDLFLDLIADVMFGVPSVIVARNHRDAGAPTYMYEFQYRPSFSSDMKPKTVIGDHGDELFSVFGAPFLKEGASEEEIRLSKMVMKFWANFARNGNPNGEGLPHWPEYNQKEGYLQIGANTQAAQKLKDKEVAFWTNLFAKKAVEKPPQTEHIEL
Test: In vitro inhibition of recombinant CES1
Assay type: biochemical
Conditions: for IC50 relative to diltiazem: recombinant CES1, fold higher than IC50 of diltiazem

Row | IC50 relative to diltiazem | IC50 [µM] | SMILES
1 | ~10 fold | – | C[C@H](CCC(=O)NCC(=O)O)[C@H]1CC[C@H]2[C@@H]3[C@H](O)C[C@@H]4C[C@H](O)CC[C@]4(C)[C@H]3CC[C@]12C [Glycochenodeoxycholic acid]
2 | – | 19.5 | C[C@H](CCC(=O)NCCS(=O)(=O)O)[C@H]1CC[C@H]2[C@@H]3[C@H](O)C[C@@H]4C[C@H](O)CC[C@]4(C)[C@H]3C[C@H](O)[C@]12C [Taurocholic acid]
3 | more than fourfold higher | – | C[C@H](CCC(=O)NCCS(=O)(=O)O)[C@H]1CC[C@H]2[C@@H]3[C@H](O)C[C@@H]4C[C@H](O)CC[C@]4(C)[C@H]3CC[C@]12C [Taurochenodeoxycholic acid]
4 | – | 13.5 | C[C@H](CCC(=O)O)[C@H]1CC[C@H]2[C@@H]3[C@H](O)C[C@@H]4C[C@H](O)CC[C@]4(C)[C@H]3CC[C@]12C [Chenodeoxycholic acid]
